Test results published in patent publication US20210275480A1, “COMPOSITIONS AND METHODS FOR THE REDUCTION OR TREATMENT OF FIBROSIS” (AXCELLA HEALTH INC., priority 2018, published 2021).

Key:
Type in all cases: cell-based
[1] = test system: Col1a1 gene expression, primary human hepatic stellate cells; assay: Col1a1 gene expression in TGFβ1-stimulated primary human hepatic stellate cells; conditions: for Col1a1 Fold Expression Relative to Control, Mean: normalized to Gapdh; for Col1a1 gene expression: primary human hepatic stellate cells, three healthy donors, TGFβ1 3 ng/mL 24 h, summary in words
Method: (§1) Primary human hepatic stellate cells were obtained from Samsara Sciences. Cells were grown in Complete HSC Medium to ˜80% confluence in T75 or T150 flasks below passage 10 were seeded into sterile, collagen I coated, 96-well optical plastic microplates (ThermoScientific, 152036) and incubated overnight at 37° C., 5% CO2 in a humidified incubator in DMEM with 2% Fetal Bovine Serum and 1% Antibiotic-Antimycotic. After the overnight incubation, plates are washed and pretreated with medium±single amino acid dropout, 1×HMDB DMEM±supplemental amino acid dose for 10.5 hours. After 10.5 hour pretreatment, the same pretreatment medium supplemented with 3 ng/mL TGFβ1, was applied and incubated for 24 hours at 37° C., 5% CO2. After 24 hour stimulus, supernatant was removed, RNA was extracted and gene expression was evaluated using the ΔΔCq method within each single amino acid dropout and supplementation by normalizing to its own 1×HMDB concentration.

[2] = test system: procollagen Iα1 secretion, primary human hepatic stellate cells; assay: Procollagen Iα1 secretion by TGFβ1-stimulated primary human hepatic stellate cells, ELISA; conditions: for procollagen Iα1 secretion: primary human hepatic stellate cells, three healthy donors, TGFβ1 3 ng/mL 24 h, summary in words
Method: as §1
Human Procollagen 1α1 was measured from the supernatant by ELISA (Human ProCollagen I alpha 1 DuoSet ELISA, R&D Systems) at 1/100 dilution in 1× Reagent Diluent (Reagent Ancillary Kit 2, R&D Systems).
Tables 32, 33, 33-1, 33-2, 33-3, and 33-4 show the fold change in procollagen Iα1 in primary human hepatic stellate cells from three different healthy donors normalized to their respective baseline amino acid conditions. Statistical significance calculated by one-way

[3] = test system: Hsp47 gene expression, primary human hepatic stellate cells; assay: Hsp47 gene expression in TGFβ1-stimulated primary human hepatic stellate cells; conditions: for Hsp47 Fold Expression Relative to Control, Mean: first donor, normalized to Gapdh, single amino acid; for Hsp47 gene expression: primary human hepatic stellate cells, three healthy donors, TGFβ1 3 ng/mL 24 h, summary in words
Method: Primary human hepatic stellate cells were obtained from Samsara Sciences based on the following criteria for selecting donors: adult age (between 18 and 50 years), normal BMI (>18.5 and <25), and absence of confounding liver disease. Cells grown in Complete HSC Medium to ˜80% confluence in T75 or T150 flasks below passage 10 were seeded into sterile, collagen I coated, 96-well optical plastic microplates (ThermoScientific, 152036) at 6000 cells per well (1250 cells per cm2) and incubated overnight at 37° C., 5% CO2 in a humidified incubator in DMEM with 2% Fetal Bovine Serum and 1% Antibiotic-Antimycotic.
After the overnight incubation, plates were removed from the incubator and the medium was gently pipetted off and washed twice with 150 μL per well DPBS. The DPBS was removed and the pretreatment medium (±single amino acid dropout, 1×HMDB DMEM+1% Antibiotic-Antimycotic, 10 mM HEPES, ±supplemental amino acid dose; see experiment for medium composition) was applied to the cells at 150 μL per well. Plates were returned to the incubator for 10.5 hours.
After 10.5 hour pretreatment, the medium was removed from the cells, and the same pretreatment medium, now supplemented with 3 ng/mL TGFβ1, was applied. Each plate contained 3 ng/mL TGFβ1 in 1× human plasma amino acid (HMDB or PAA) concentration medium, 0 ng/mL in 1×HMDB, and 3 ng/mL TGFβ1+20 μM Silybin in 1×HMDB to serve as controls. Plates were then incubated for 24 hours at 37° C., 5% CO2.
After 24 hour stimulus, supernatant was removed and frozen at −80° C. in two separate aliquots. The cells were then washed with 125 μL per well Buffer FCW (FastLane Cell Multiplex NR Kit, Qiagen, 216713). The wash buffer was immediately removed and 50 μL of Cell Processing Mix (containing genomic DNA Wipeout buffer) was applied to lyse cells, incubating for 10 minutes at room temperature. RNA lysate was then transferred to 96-well qPCR plates, sealed, and gDNA was digested on thermal cycler at 75° C. for 5 minutes. RNA lysate was frozen at −80° C.
Each 20 μL one-step RT-qPCR reaction contained 4 μL of RNA lysate. Gene expression of Hsp47, and Gapdh were multiplexed using the HEX, and FAM fluorescent channels, respectively, with commercially available primer-probe mixes (the Human Hsp47 Primer-Probe Set, HEX; and the Human Gapdh Primer-Probe Set, FAM from IDT). Gene expression was evaluated using the ΔΔCq method within each single amino acid dropout and supplementation by normalizing to its own 1×HMDB concentration.

[4] = first donor, 66 μM (baseline, reference)
[5] = first donor, 234 μM (baseline, reference)

## CC[C@H](C)[C@H](N)C(=O)O [ILE, isoleucine]
[1]; Table 31-4, second donor, 66 μM (baseline, reference)
  Col1a1 Fold Expression Relative to Control, Mean: 1.02 fold
[1]; Table 31-4, second donor, 1328 μM
  Col1a1 Fold Expression Relative to Control, Mean: 0.94 fold
[1]; Table 31-4, second donor, 3320 μM
  Col1a1 Fold Expression Relative to Control, Mean: 0.94 fold
[1]; Table 31-4, second donor, 6639 μM
  Col1a1 Fold Expression Relative to Control, Mean: 1.03 fold
[1]; [4]
  Col1a1 Fold Expression Relative to Control, Mean: 1.01 fold
[1]; first donor, 1328 μM
  Col1a1 Fold Expression Relative to Control, Mean: 1.05 fold
[1]; first donor, 3320 μM
  Col1a1 Fold Expression Relative to Control, Mean: 1.10 fold
[1]; first donor, 6639 μM
  Col1a1 Fold Expression Relative to Control, Mean: 1.11 fold
[1]
  Col1a1 gene expression: did not significantly change
[1]; second donor, 66 μM (baseline, reference)
  Col1a1 Fold Expression Relative to Control, Mean: 1.00 fold
[1]; second donor, 1328 μM
  Col1a1 Fold Expression Relative to Control, Mean: 0.97 fold
[1]; second donor, 3320 μM
  Col1a1 Fold Expression Relative to Control, Mean: 0.99 fold
[1]; second donor, 6639 μM
  Col1a1 Fold Expression Relative to Control, Mean: 1.03 fold
[2]; [4]
  Procollagen Ia1 Secretion (Fold Change of 1X), Mean: 1.0000 fold
[2]; first donor, 1328 μM
  Procollagen Ia1 Secretion (Fold Change of 1X), Mean: 0.9229 fold
[2]; first donor, 3320 μM
  Procollagen Ia1 Secretion (Fold Change of 1X), Mean: 1.1366 fold
[2]; first donor, 6639 μM
  Procollagen Ia1 Secretion (Fold Change of 1X), Mean: 1.2144 fold
[2]
  procollagen Iα1 secretion: significantly increased procollagen Iα1 secretion in two of three donors
[2]; second donor, single amino acid, 66 μM (1X reference)
  Procollagen Ia1 Secretion (Fold Change of 1X), Mean: 1.0000 fold change
[2]; second donor, single amino acid, 1328 μM
  Procollagen Ia1 Secretion (Fold Change of 1X), Mean: 1.4811 fold change
[2]; second donor, single amino acid, 3320 μM
  Procollagen Ia1 Secretion (Fold Change of 1X), Mean: 1.4940 fold change
[2]; second donor, single amino acid, 6639 μM
  Procollagen Ia1 Secretion (Fold Change of 1X), Mean: 1.5423 fold change
[2]; third donor, single amino acid, 66 μM (1X reference)
  Procollagen Ia1 Secretion (Fold Change of 1X), Mean: 1.0000 fold change
[2]; third donor, single amino acid, 1328 μM
  Procollagen Ia1 Secretion (Fold Change of 1X), Mean: 1.2687 fold change
[2]; third donor, single amino acid, 3320 μM
  Procollagen Ia1 Secretion (Fold Change of 1X), Mean: 1.2703 fold change
[2]; third donor, single amino acid, 6639 μM
  Procollagen Ia1 Secretion (Fold Change of 1X), Mean: 1.4465 fold change
[3]; Table 38, second donor, 66 μM (baseline 1×HMDB concentration)
  Hsp47 Fold Expression Relative to Control, normalized to Gapdh (Mean): 1.00 fold
[3]; Table 38, second donor, 1328 μM
  Hsp47 Fold Expression Relative to Control, normalized to Gapdh (Mean): 0.90 fold
[3]; Table 38, second donor, 3320 μM
  Hsp47 Fold Expression Relative to Control, normalized to Gapdh (Mean): 0.92 fold
[3]; Table 38, second donor, 6639 μM
  Hsp47 Fold Expression Relative to Control, normalized to Gapdh (Mean): 0.94 fold
[3]; Table 40, second donor (so in the source), 66 μM (baseline 1×HMDB concentration)
  Hsp47 Fold Expression Relative to Control, normalized to Gapdh (Mean): 1.00 fold
[3]; Table 40, second donor (so in the source), 1328 μM
  Hsp47 Fold Expression Relative to Control, normalized to Gapdh (Mean): 1.00 fold
[3]; Table 40, second donor (so in the source), 3320 μM
  Hsp47 Fold Expression Relative to Control, normalized to Gapdh (Mean): 0.98 fold
[3]; Table 40, second donor (so in the source), 6639 μM
  Hsp47 Fold Expression Relative to Control, normalized to Gapdh (Mean): 1.06 fold
[3]; 66 μM (1X reference)
  Hsp47 Fold Expression Relative to Control, Mean: 1.00 fold
[3]; 1328 μM
  Hsp47 Fold Expression Relative to Control, Mean: 1.07 fold
[3]; 3320 μM
  Hsp47 Fold Expression Relative to Control, Mean: 1.22 fold
[3]; 6639 μM
  Hsp47 Fold Expression Relative to Control, Mean: 0.99 fold
[3]
  Hsp47 gene expression: did not significantly change

## CC(C)[C@H](N)C(=O)O [VAL, valine]
[1]; Table 31-4, second donor, 234 μM (baseline, reference)
  Col1a1 Fold Expression Relative to Control, Mean: 1.01 fold
[1]; Table 31-4, second donor, 4684 μM
  Col1a1 Fold Expression Relative to Control, Mean: 1.22 fold
[1]; Table 31-4, second donor, 11710 μM
  Col1a1 Fold Expression Relative to Control, Mean: 1.27 fold
[1]; Table 31-4, second donor, 23420 μM
  Col1a1 Fold Expression Relative to Control, Mean: 1.13 fold
[1]; [5]
  Col1a1 Fold Expression Relative to Control, Mean: 1.00 fold
[1]; first donor, 4684 μM
  Col1a1 Fold Expression Relative to Control, Mean: 1.05 fold
[1]; first donor, 11710 μM
  Col1a1 Fold Expression Relative to Control, Mean: 1.09 fold
[1]; first donor, 23420 μM
  Col1a1 Fold Expression Relative to Control, Mean: 1.00 fold
[1]
  Col1a1 gene expression: did not significantly change
[1]; second donor, 234 μM (baseline, reference)
  Col1a1 Fold Expression Relative to Control, Mean: 1.00 fold
[1]; second donor, 4684 μM
  Col1a1 Fold Expression Relative to Control, Mean: 1.05 fold
[1]; second donor, 11710 μM
  Col1a1 Fold Expression Relative to Control, Mean: 0.98 fold
[1]; second donor, 23420 μM
  Col1a1 Fold Expression Relative to Control, Mean: 1.05 fold
[2]; [5]
  Procollagen Ia1 Secretion (Fold Change of 1X), Mean: 1.0000 fold
[2]; first donor, 4684 μM
  Procollagen Ia1 Secretion (Fold Change of 1X), Mean: 1.1203 fold
[2]; first donor, 11710 μM
  Procollagen Ia1 Secretion (Fold Change of 1X), Mean: 1.2069 fold
[2]; first donor, 23420 μM
  Procollagen Ia1 Secretion (Fold Change of 1X), Mean: 1.2139 fold
[2]
  procollagen Iα1 secretion: significantly increased procollagen Iα1 secretion in only one of two donors
[2]; second donor, single amino acid, 234 μM (1X reference)
  Procollagen Ia1 Secretion (Fold Change of 1X), Mean: 1.0000 fold change
[2]; second donor, single amino acid, 4684 μM
  Procollagen Ia1 Secretion (Fold Change of 1X), Mean: 1.2865 fold change
[2]; second donor, single amino acid, 11710 μM
  Procollagen Ia1 Secretion (Fold Change of 1X), Mean: 1.2877 fold change
[2]; second donor, single amino acid, 23420 μM
  Procollagen Ia1 Secretion (Fold Change of 1X), Mean: 1.3068 fold change
[2]; third donor, single amino acid, 234 μM (1X reference)
  Procollagen Ia1 Secretion (Fold Change of 1X), Mean: 1.0000 fold change
[2]; third donor, single amino acid, 4684 μM
  Procollagen Ia1 Secretion (Fold Change of 1X), Mean: 1.0428 fold change
[2]; third donor, single amino acid, 11710 μM
  Procollagen Ia1 Secretion (Fold Change of 1X), Mean: 1.0498 fold change
[2]; third donor, single amino acid, 23420 μM
  Procollagen Ia1 Secretion (Fold Change of 1X), Mean: 1.1139 fold change
[3]; Table 38, second donor, 234 μM (baseline 1×HMDB concentration)
  Hsp47 Fold Expression Relative to Control, normalized to Gapdh (Mean): 1.00 fold
[3]; Table 38, second donor, 4684 μM
  Hsp47 Fold Expression Relative to Control, normalized to Gapdh (Mean): 1.02 fold
[3]; Table 38, second donor, 11710 μM
  Hsp47 Fold Expression Relative to Control, normalized to Gapdh (Mean): 0.99 fold
[3]; Table 38, second donor, 23420 μM
  Hsp47 Fold Expression Relative to Control, normalized to Gapdh (Mean): 0.89 fold
[3]; Table 40, second donor (so in the source), 234 μM (baseline 1×HMDB concentration)
  Hsp47 Fold Expression Relative to Control, normalized to Gapdh (Mean): 1.00 fold
[3]; Table 40, second donor (so in the source), 4684 μM
  Hsp47 Fold Expression Relative to Control, normalized to Gapdh (Mean): 0.97 fold
[3]; Table 40, second donor (so in the source), 11710 μM
  Hsp47 Fold Expression Relative to Control, normalized to Gapdh (Mean): 0.95 fold
[3]; Table 40, second donor (so in the source), 23420 μM
  Hsp47 Fold Expression Relative to Control, normalized to Gapdh (Mean): 0.95 fold
[3]; 234 μM (1X reference)
  Hsp47 Fold Expression Relative to Control, Mean: 1.00 fold
[3]; 4684 μM
  Hsp47 Fold Expression Relative to Control, Mean: 1.05 fold
[3]; 11710 μM
  Hsp47 Fold Expression Relative to Control, Mean: 1.05 fold
[3]; 23420 μM
  Hsp47 Fold Expression Relative to Control, Mean: 1.00 fold
[3]
  Hsp47 gene expression: did not significantly change
